# Read-outs that look alike come from different tables or passages of the source.
# What was measured:
# caspase-11 [1] = target: T1, caspase-11 (Mus musculus, UniProt P70343); experiment: microscale thermophoresis; format: binding
# T1 sequence (P70343 1-80 limits assumed): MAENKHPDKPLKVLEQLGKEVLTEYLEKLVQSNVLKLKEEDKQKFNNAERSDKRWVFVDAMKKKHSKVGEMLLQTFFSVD
# caspase-11 [2] = target: T1, caspase-11; experiment: microscale thermophoresis; format: binding; remark: listed apart in the source
# [3] = target: T2, AcCARD (uncharacterized CARD-containing protein) (Amphilophus citrinellus, UniProt A0A3Q0SFM2); experiment: limited trypsin digestion and blue native PAGE in […] lysates; format: cell-based
# T2 sequence (A0A3Q0SFM2 1-92): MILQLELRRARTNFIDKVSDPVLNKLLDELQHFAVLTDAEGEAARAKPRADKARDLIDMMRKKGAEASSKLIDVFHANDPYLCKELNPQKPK
Kd (caspase-11 [2]) [µM],SMILES,Kd (caspase-11 [1]) [µM],limited trypsin digestion and blue native PAGE in 293T lysates [3]
,"CCCCCCCCCCCCCCCC(=O)OC[C@@H](O)COP(=O)([O-])OCC[N+](C)(C)C [16:0 LysoPC, 1-palmitoyl-2-hydroxy-sn-glycero-3-phosphocholine]",~10,
~15,CCCCCCCCCCCCCCCC(=O)OC[C@H](COP(=O)([O-])OCC[N+](C)(C)C)OC(=O)CCCC(=O)O [PGPC],,we found that AcCARD binds PGPC in both native PAGE and limited trypsin digestion assays

# Source: PMC11887843 (Science Advances, 2024)
